Results on twelve compounds are retold here after patent publication US20260166039A1 (SCHRÖDINGER, INC., priority 2022, published 2026).

Where two headings read alike, the source gives them in different places. Bounds are passed on as bounds.

Experiment [1] concerns phosphorylation of Cdc2 Y15 (Wee1 substrate) in A427 cells. The experiment in a line: Phosphorylated Cdc2 MSD Electrochemiluminescence Assay. It counts as cell-based. The conditions noted are these: Homo sapiens. The method, then:
Phosphorylated Cdc2 MSD Electrochemiluminescence Assay
The effect of Wee1 inhibitors on cellular phosphorylation of the Wee1 substrate Cdc2 was determined using the following protocol:
A total of 40,000 A427 cells in 100 uL culture medium (1640 medium+10% Fetal bovine serum+1% Penicillin-Streptomycin) were plated in 96-well cell culture plates. 3-fold serial dilutions of test compounds were prepared in completed PBS at 25× final concentration. After 20 hours, the plates were removed and 4 μL of each were added to the cells and incubated with shaking for 30 minutes at 37° C., 5% CO2. Each concentration was tested in duplicate. After a total 6 hours incubation, plates were removed and centrifuged for 5 minutes and 100 uL of supernatant from each well was removed. Cells were washed with 200 μL PBS and lysed with 50 μL MSD lysis buffer (Meso Scale Diagnostics) supplied with 1× complete ULTRA cocktail inhibitor (Roche).
To detect phosphorylation of Cdc2 Y15, 30 μL of capture antibody solution (CST catalog #9116S 1:200) was added into each well of the MSD plate (MSD catalog #L15XB-6), sealed and incubated at 4° C. with shaking (450 rpm) overnight. The antibody solution was removed, wells blocked with BSA solution and plates washed three times with PBST, followed by addition of 30 μl of cell lysate per well. After 2 hours of incubation, plates were washed three times with PBST. 30 μL of 1× detection antibody solution (CST catalog #4539S 1:200) was then added to each well and incubated for 1 hour. Plates were washed three times with PBST and 30 μL of 1× secondary antibody solution (MSD, catalog #:R32AB-1, 1:5000) was added to each well and incubated for 1 hour. Plates were washed three times with PBST and 150 μL of 1× Read Buffer T (MSD, catalog #R92TC-1) was added to each well of the MSD plate. The electrochemiluminescence signal was measured on a MESO SECTOR S600 plate reader. The percentage of remaining phosphorylated Cdc2 signal was calculated following the equation below.
[formula] • HC (high control): Cells treated with DMSO • Cpds: Cells treated with test compounds • LC (low control): Cells treated with positive control Wee1 inhibitor

A further experiment has as its target T1, Wee1 kinase domain (Homo sapiens, UniProt P30291).
T1 construct: Wee1 kinase domain was purchased from Carna (catalog #05-177); purchased Carna 05-177
In words: Wee1 Kinase Biochemical Assay (ADP-Glo). The conditions noted are these: 15 uM ATP. The procedure, abridged:
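ADP-Glo detection of ADP produced after 4 h at 25° C by 1 nM Wee1 kinase domain on 2 ng/mL poly(Lys,Tyr 4:1) with 15 uM ATP. Buffer: 40 mM Tris-HCl, 20 mM MgCl2, 0.1 mg/mL BSA, 2 mM DTT. Inhibition is relative to DMSO (high) and saturating Wee1 inhibitor (low) controls.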
For orientation: ADP-Glo turns the ADP formed in a reaction into a luminescent signal.

Setting [2] is: A-427, class symbols, read-out: A427 pCDC2 MSD IC50.
Where [3] appears, read: class symbols, 1 nM Wee1 enzyme, 4 hours at 25° C.

T1 sequence (P30291 299-569 limits assumed): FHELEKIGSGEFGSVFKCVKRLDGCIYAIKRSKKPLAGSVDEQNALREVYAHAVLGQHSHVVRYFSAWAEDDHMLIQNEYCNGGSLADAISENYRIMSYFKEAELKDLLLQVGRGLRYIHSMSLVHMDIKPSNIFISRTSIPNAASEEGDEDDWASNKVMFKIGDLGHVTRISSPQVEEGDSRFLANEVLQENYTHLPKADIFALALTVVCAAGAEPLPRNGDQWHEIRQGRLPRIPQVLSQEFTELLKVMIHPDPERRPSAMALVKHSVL

Take `C[C@H]1COC(=O)N1c1cccc(N2c3nc(Nc4ccn(C)c(=O)c4)ncc3[C@@]3(C)COC(C)(C)C[C@@H]23)n1` (single isomer, unassigned) [Example 341]: the IC50 in experiment [1] (A-427, pCDC2 MSD) is 0.1 to 1 µM; on Wee1 kinase domain (Wee1 kinase domain, ADP-Glo), less than 0.01 µM.
Regarding `CC1(C)C[C@H]2N(c3cccc([C@H]4CNCCO4)n3)c3nc(Nc4ccc(N5CCOCC5)cc4)ncc3[C@@]2(C)CO1` [Example 737, (4bR,8aR)-4b,7,7-trimethyl-9-(6-((R)-morpholin-2-yl)pyridin-2-yl)-N-(4-morpholinophenyl)-4b,5,7,8,8a,9-hexahydropyrano[3′,4′:4,5]pyrrolo[2,3-d]pyrimidin-2-amine], the IC50 in experiment [1] (setting [2]) was 0.1 to 1 µM; on Wee1 kinase domain (setting [3]), less than 0.01 µM.
Consider `CNCc1cccc(N2c3nc(Nc4ccc(-n5ccnc5)nc4)ncc3[C@@]3(C)COC(C)(C)C[C@@H]23)n1` (single isomer, unassigned) [Example 468], for which the IC50 in experiment [1] (setting [2]) was 1 to 10 µM; at Wee1 kinase domain (setting [3]), less than 0.01 µM.
Consider `C[C@H]1COC(=O)N1c1cccc(N2c3nc(Nc4ccc(O[C@@H]5CCN(C)C5)cc4)ncc3[C@@]3(C)COC(C)(C)C[C@@H]23)n1` (single isomer, unassigned) [Example 331], for which the IC50 in experiment [1] (A-427, pCDC2 MSD) is 0.1 to 1 µM; against Wee1 kinase domain (Wee1 kinase domain, ADP-Glo), less than 0.01 µM.
For the compound `Cc1cc(Nc2ncc3c(n2)N(c2cccc(C(C)(C)O)n2)[C@@H]2CC(C)(C)OC[C@]32C)ccc1N1C[C@@H]2C[C@H]1CN2C` (single isomer, unassigned) [Example 429], the IC50 in experiment [1] (setting [2]) was 0.1 to 1 µM; at Wee1 kinase domain (setting [3]) it was less than 0.01 µM.
In experiment [1] (A-427, pCDC2 MSD), `CC1(C)C[C@H]2N(c3cccc([C@@H]4CCCN4)n3)c3nc(Nc4ccn(C5CCOCC5)c(=O)c4)ncc3[C@@]2(C)CO1` (single isomer, unassigned) [Example 392, 1-(tetrahydro-2H-pyran-4-yl)-4-(((4bR,8aR)-4b,7,7-trimethyl-9-(6-((S)-pyrrolidin-2-yl)pyridin-2-yl)-4b,5,7,8,8a,9-hexahydropyrano[3′,4′:4,5]pyrrolo[2,3-d]pyrimidin-2-yl)amino)pyridin-2(1H)-one] registered an IC50 of 1 to 10 µM.
Take `CC[C@]1(O)CCc2ccc(N3c4nc(Nc5ccc(N6CCN(C)CC6)cc5)ncc4[C@@]4(C)COC(C)(C)C[C@@H]34)nc21` [Example 788, (S)-7-ethyl-2-((4bR,8aR)-4b,7,7-trimethyl-2-((4-(4-methylpiperazin-1-yl)phenyl)amino)-4b,7,8,8a-tetrahydropyrano[3′,4′:4,5]pyrrolo[2,3-d]pyrimidin-9(5H)-yl)-6,7-dihydro-5H-cyclopenta[b]pyridin-7-ol]: the IC50 against Wee1 kinase domain (setting [3]) was less than 0.01 µM.
On Wee1 kinase domain (Wee1 kinase domain, ADP-Glo), `CNCc1cccc(N2c3nc(Nc4ccc([C@H]5CCCO5)cc4)ncc3[C@]3(C)COC(C)(C)C[C@H]23)n1` (single isomer, unassigned) [Example 58] registered an IC50 of no less than 1 µM.
Consider `CC1(C)C[C@H]2N(c3cccc(N=S(C)(C)=O)n3)c3nc(Nc4ccc(N5CCN6CCC[C@H]6C5)cc4)ncc3[C@@]2(C)CO1` (single isomer, unassigned) [Example 507], for which the IC50 against Wee1 kinase domain (setting [3]) was less than 0.01 µM.
On to `CN1CC2(C1)CN(c1ccc(Nc3ncc4c(n3)N(c3cccc(N=S(C)(C)=O)n3)[C@H]3CC(C)(C)OC[C@@]43C)cc1)C2` (single isomer, unassigned) [Example 220], for which the IC50 against Wee1 kinase domain (Wee1 kinase domain, ADP-Glo) was 0.1 to 1 µM.
Consider `CN1C[C@H]2C[C@@H]1CN2c1ccc(Nc2ncc3c(n2)N(c2cccc(C4(O)CC4)n2)[C@H]2CC(C)(C)OC[C@@]32C)cc1` [Example 647, 1-(6-((4bS,8aS)-4b,7,7-trimethyl-2-((4-((1R,4R)-5-methyl-2,5-diazabicyclo[2.2.1]heptan-2-yl)phenyl)amino)-4b,7,8,8a-tetrahydropyrano[3′,4′:4,5]pyrrolo[2,3-d]pyrimidin-9(5H)-yl)pyridin-2-yl)cyclopropan-1-ol], for which the IC50 at Wee1 kinase domain (setting [3]) is 0.01 to 0.1 µM.
Consider `C[C@H]1COC(=O)N1c1cccc(N2c3nc(Nc4ccc(O[C@@H]5CCN(C)C5)cc4)ncc3[C@]3(C)COC(C)(C)C[C@H]23)n1` (single isomer, unassigned) [Example 330], for which the IC50 against Wee1 kinase domain (Wee1 kinase domain, ADP-Glo) was in the range of 0.01 to 0.1 µM.

In general, IC50 refers to the concentration needed to halve the response being measured.
